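Step 1: Grow cells in 96-well plates. Step 2: Expose to compound for 48 hours at 5 concentrations. Step 3: Interpolate endpoints linearly; if unreached, use highest concentration. GI50 = concentration required for 50% inhibition of growth.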 Active and inactive are the calls of the source. Cut-off read from the data, not from the text of the source: active = GI50 up to about 1.1 µM and inactive = higher.
How the values were obtained:
Assay in all cases: DTP human tumour cell line panel, 48 h
[1] = tested on: MOLT-4
[2] = tested on: SK-OV-3
[3] = tested on: COLO 205
[4] = tested on: SNB-75
[5] = tested on: HCT-116
[6] = tested on: A498
[7] = tested on: SR
[8] = tested on: HT-29
[9] = tested on: SK-MEL-2
[10] = tested on: NCI-H23
[11] = tested on: RXF 393
[12] = tested on: KM-20L2
[13] = tested on: HL-60
[14] = tested on: HCC 2998
[15] = tested on: HOP-92
[16] = tested on: M19-MEL
[17] = tested on: K562

Measured: GI50

COCCOCOC(C)(C)[C@H](CCO)O[Si](c1ccccc1)(c1ccccc1)C(C)(C)C
inactive: [1] 3.54 µM | [2] 12.5 µM | [3] 15.9 µM | [4] 8.11 µM | [5] 3.67 µM | [6] 16.7 µM | [7] 3.25 µM | [8] 8.61 µM | [9] > 10 µM | [10] 15.7 µM | [11] 5.3 µM | [12] 11.8 µM | [13] 2.39 µM | [14] 4.68 µM | [15] 10.6 µM | [16] 11.7 µM

CCCCOC(=O)CNC(=O)OCCCCC#CC#CCCCCOC(=O)NCC(=O)OCCCC
inactive: [1] > 100 µM | [2] > 100 µM | [3] > 100 µM | [4] > 100 µM | [5] > 100 µM | [6] > 100 µM | [7] > 100 µM | [8] > 100 µM | [17] > 100 µM | [10] > 100 µM | [12] > 100 µM | [13] > 100 µM | [14] > 100 µM | [16] > 100 µM

C/C=C/C1(C)/C(=N\O)C(C)(CCC)C(=O)N1O (configuration not stated)
inactive: [1] > 100 µM | [2] > 100 µM | [3] > 100 µM | [4] > 100 µM | [5] > 100 µM | [6] > 100 µM | [7] > 100 µM | [8] > 100 µM | [17] > 100 µM | [9] > 100 µM | [10] > 100 µM | [11] > 100 µM | [12] > 100 µM | [13] > 100 µM | [14] > 100 µM | [15] > 100 µM | [16] > 100 µM

Nc1nc(Cl)cc(NCCCCCCNc2cc(Cl)nc(N)n2)n1
inactive: [1] 48.2 µM | [2] > 100 µM | [3] > 100 µM | [4] > 100 µM | [5] 30.7 µM | [7] 42 µM | [8] > 100 µM | [17] 28.6 µM | [9] 87.9 µM | [10] 54.5 µM | [11] > 100 µM | [12] > 100 µM | [13] 15.2 µM | [14] > 100 µM | [15] 25.4 µM | [16] > 100 µM

COc1ccccc1/C=C1\CCC(CCN2CCOCC2)C1=O (configuration not stated)
inactive: [1] 48.1 µM | [4] 49 µM | [5] 70.8 µM | [6] > 100 µM | [7] > 100 µM | [8] 50.1 µM | [17] 41.1 µM | [9] > 100 µM | [10] > 100 µM | [11] 59.8 µM | [12] 75 µM | [13] 31.5 µM | [14] 66.1 µM | [15] > 100 µM | [16] > 100 µM

O=C(Nc1ccc(Cl)c(Cl)c1)C(=O)C(C(=O)c1ccccc1-c1ccccc1)C1OC(=O)c2ccccc21 (configuration not stated)
inactive: [1] 14 µM | [2] 28.5 µM | [3] 15.6 µM | [4] 13 µM | [5] 10.5 µM | [6] 22.9 µM | [8] 29.8 µM | [17] 21.5 µM | [9] 11.4 µM | [10] 10.6 µM | [11] 8.15 µM | [12] 22.9 µM | [13] 10.9 µM | [14] 14.5 µM | [15] 12.9 µM | [16] 13.1 µM

O=C1[C@@H]2C(c3ccc(Cl)cc3Cl)=NO[C@@H]2C(=O)N1c1ccc(Cc2ccc(N3C(=O)[C@H]4C(c5ccc(Cl)cc5Cl)=NO[C@H]4C3=O)cc2)cc1
inactive: [1] 17.3 µM | [2] > 100 µM | [3] 50.9 µM | [4] > 100 µM | [6] > 100 µM | [8] > 100 µM | [17] 29.3 µM | [9] > 100 µM | [10] > 100 µM | [11] 13.6 µM | [12] > 100 µM | [13] 11.4 µM | [14] > 100 µM | [15] 17.7 µM | [16] > 100 µM

Cc1cc(NS(=O)(=O)c2ccc(NC(=O)c3cccc4c(Nc5ccc(S(=O)(=O)Nc6cc(C)on6)cc5)c5ccccc5nc34)cc2)no1
inactive: [1] 34.1 µM | [2] > 100 µM | [3] 62.4 µM | [4] 22.3 µM | [6] 68.9 µM | [8] > 100 µM | [17] 36.6 µM | [9] 30.3 µM | [10] 44.5 µM | [11] 25.8 µM | [12] > 100 µM | [13] 23.7 µM | [15] 17.5 µM | [16] 35.8 µM

Cc1cc(C)nc(NS(=O)(=O)c2ccc(Nc3c4ccccc4nc4c(C(=O)Nc5ccc(S(=O)(=O)N=C(N)N)cc5)ccc(Cl)c34)cc2)n1
inactive: [1] 23.5 µM | [2] 22.9 µM | [3] 55 µM | [4] 35.7 µM | [5] 21.9 µM | [6] 34.6 µM | [7] 25.3 µM | [8] 36.3 µM | [17] 24.2 µM | [10] 19.7 µM | [11] 18.2 µM | [12] 35.6 µM | [13] 24.1 µM | [14] 20 µM | [16] 26 µM

CC1=NN(C(=O)c2ccc(Cl)cc2)C(=O)/C1=C/c1ccco1
inactive: [1] > 100 µM | [2] > 100 µM | [3] > 100 µM | [5] > 100 µM | [6] > 100 µM | [8] > 100 µM | [17] > 100 µM | [9] > 100 µM | [10] > 100 µM | [11] > 100 µM | [12] > 100 µM | [13] > 100 µM | [14] > 100 µM | [15] > 100 µM | [16] > 100 µM

Cc1ccc(NC(=O)C2C(=O)C(=O)N(c3ccc(C)cc3)C2=O)cc1 (configuration not stated)
inactive: [1] > 100 µM | [3] > 100 µM | [5] > 100 µM | [6] > 100 µM | [7] > 100 µM | [8] > 100 µM | [17] > 100 µM | [9] > 100 µM | [10] > 100 µM | [11] 72.1 µM | [12] > 100 µM | [13] > 100 µM | [14] > 100 µM | [15] > 100 µM | [16] > 100 µM

COC(=O)C(CCC1(C)OCCO1)C(C)=O (configuration not stated)
inactive: [1] > 100 µM | [2] > 100 µM | [3] > 100 µM | [4] > 100 µM | [5] > 100 µM | [6] > 100 µM | [7] 84.3 µM | [8] > 100 µM | [17] > 100 µM | [9] > 100 µM | [10] > 100 µM | [11] > 100 µM | [12] > 100 µM | [13] > 100 µM | [14] > 100 µM | [16] > 100 µM

CCCCCCCCCCCCCS(=O)(=O)O
inactive: [3] > 100 µM | [4] > 100 µM | [5] > 100 µM | [6] > 100 µM | [8] > 100 µM | [9] > 100 µM | [10] > 100 µM | [11] > 100 µM | [12] > 100 µM | [13] > 100 µM | [14] > 100 µM | [15] > 100 µM | [16] > 100 µM
